Experimental findings from patent US20050191308A1 (priority 1999, published 2005) are described below.

For one assay, the system named is blood cells. It counts as in vivo, C57BL/6 mice. Particulars: 10 μg ESAT-6/dose, three times.
The next assay relates to ESAT-6. Particulars: in vivo.

SMILES strings stand for the structures.

With `CCCCCCCCCCCCCCCCCC[N+](C)(C)CCCCCCCCCCCCCCCCCC.[Br-]` [DDA], in the assay on blood cells, the “ESAT-6 specific recall response, IFN-γ, Expt. I” value was below 50 pg/mL. In the assay with ESAT-6, the “ESAT-6 specific IgG (end-point titer), Expt. I” value is listed as below 3 and the “ESAT-6 specific IgG (end-point titer), Expt. II” value is listed as below 3.
